Results on 6 compounds are retold here after patent US4556715A, “Nicotinic acid derivatives” (Kyorin Pharmaceutical Co., Ltd., priority 1980, dated 1985).

Read-outs that look alike come from different tables or passages of the source.

This data set has as its system serum and liver lipid levels in rats. Description: Serum and liver lipid levels and relative liver weight in rats (100 mg/kg, 10 days). Type of data set: in vivo, Male rats of the Wistar strain. Conditions: for response vs control in vivo at 100 mg/kg: Rattus norvegicus, po; for response vs control in vivo at 100 mg/kg / Relative liver weight, relative to Control (100): in parentheses, Control = (100); for Liver lipid levels Ch / Liver lipid levels PL / Liver lipid levels TG / Relative liver weight / Serum lipid levels Ch / Serum lipid levels PL / Serum lipid levels TG: 100 mg/kg p.o. 10 days, Mean ± S.E. (n = 9). As to the method:
(2) Male rats of the Wistar strain weighing 160-180 g were fed a stock deit (CE-2, Japan CLEA, Tokyo) and water ad libitum. The present compounds and KCD-232 were suspended, respectively, in a 0.5% of CMC solution and give orally to rats once a day at a dose of 100 mg/kg b.w. for 10 days.
Control rats were received the 0.5% CMC solution alone. The diet was withdrawn immediately after the last administration of compounds. Animals were sacrificed by decapitation 4 hr after the last administration and blood was collected, clotted and centrifuged to obtain serum. The liver was excised quickly and weighed. Total lipids were extracted from the serum and liver, and the levels of Ch, TG and PL were determined colorimetrically.

Where [1] appears, read: 240 h, Table 2, read-out: Liver lipid levels PL, relative to Control (100).
Where [2] appears, read: 240 h, Table 3, read-out: Liver lipid levels PL, relative to Control (100).
[3] abbreviates: Table 2, read-out: Liver lipid levels Ch, relative to Control (100).
The mark [4] stands for this setting: Table 2, read-out: Liver lipid levels TG, relative to Control (100).
The mark [5] stands for this setting: Table 2, read-out: Serum lipid levels Ch, relative to Control (100).
Where [6] appears, read: Table 2, read-out: Serum lipid levels PL, relative to Control (100).
Where [7] appears, read: Table 2, read-out: Serum lipid levels TG, relative to Control (100).
Where [8] appears, read: Table 3, read-out: Liver lipid levels Ch, relative to Control (100).
Where [9] appears, read: Table 3, read-out: Liver lipid levels TG, relative to Control (100).
Where [10] appears, read: Table 3, read-out: Serum lipid levels Ch, relative to Control (100).
The mark [11] stands for this setting: Table 3, read-out: Serum lipid levels PL, relative to Control (100).
[12] abbreviates: Table 3, read-out: Serum lipid levels TG, relative to Control (100).

On to `O=C(OCCc1ccc(OCc2ccc(Cl)cc2)cc1)c1cccnc1` [n1=1, n2=2, 4-(4-Chlorobenzyloxy)phenethyl nicotinate], for which the response vs control in vivo at 100 mg/kg under setting [1] worked out at 105%; the response vs control in vivo at 100 mg/kg under setting [2] is 104%; the response vs control in vivo at 100 mg/kg under setting [3] worked out at 78.3%; the response vs control in vivo at 100 mg/kg under setting [4] stood at 82.9%; the response vs control in vivo at 100 mg/kg under setting [5] stood at 78.1%; the response vs control in vivo at 100 mg/kg under setting [6] came to 76.8%. The response vs control in vivo at 100 mg/kg reads like this: under setting [7], 44.2%; under setting [8], 106%; under setting [9], 79%; under setting [10], 70.9%; under setting [11], 64.7%; under setting [12], 27.3%. Further, the “Liver lipid levels Ch” value reads like this: (Table 2) 2.38 ± 0.10 mg/g liver; (Table 3) 2.46 ± 0.14 mg/g liver. Moreover, the “Liver lipid levels PL” value came to 39.9 ± 0.8 mg/g liver (Table 2) and 37.5 ± 0.4 mg/g liver (Table 3). For the same compound, the “Liver lipid levels TG” value (Table 2) is 5.24 ± 0.36 mg/g liver. Also, the Relative liver weight by setting is: (Table 2) 4.10 ± 0.06 g/100 g b.w; (Table 3) 3.80 ± 0.07 g/100 g b.w. The Serum lipid levels Ch is, setting by setting: (Table 2) 67.7 ± 3.3 mg/dL; (Table 3) 69.2 ± 3.9 mg/dL. For the same compound, the Serum lipid levels PL runs as follows: (Table 2) 114 ± 4.7 mg/dL; (Table 3) 101 ± 4.5 mg/dL. Also, the Serum lipid levels TG worked out at 54.7 ± 6.5 mg/dL (Table 2) and 34.2 ± 2.9 mg/dL (Table 3). Besides, the “Relative liver weight, relative to Control (100)” value (“Relative liver weight … (100)” below) reads like this: (Table 2) 106; (Table 3) 100.

Take `O=C(OCCCCc1ccc(OCc2ccc(Cl)cc2)cc1)c1cccnc1` [n1=1, n2=4, 4-[4-Chlorobenzyloxy)phenyl]butyl nicotinate]: the response vs control in vivo at 100 mg/kg under setting [1] turned out to be 101%; the response vs control in vivo at 100 mg/kg under setting [2] was found to be 101%; the response vs control in vivo at 100 mg/kg under setting [3] was 70.1%; the response vs control in vivo at 100 mg/kg under setting [4] was found to be 106%; the response vs control in vivo at 100 mg/kg under setting [5] turned out to be 75.4%; the response vs control in vivo at 100 mg/kg under setting [6] is 77%. Further, the response vs control in vivo at 100 mg/kg runs as follows: under setting [7], 39.5%; under setting [8], 108%; under setting [9], 103%; under setting [10], 76%; under setting [11], 68.2%; under setting [12], 29.9%. Further, the “Liver lipid levels Ch” value by setting is: (Table 2) 2.13 ± 0.04 mg/g liver; (Table 3) 2.51 ± 0.11 mg/g liver. Further, the “Liver lipid levels PL” value turned out to be 38.4 ± 0.7 mg/g liver (Table 2) and 36.7 ± 0.9 mg/g liver (Table 3). The “Liver lipid levels TG” value amounted to 6.73 ± 0.51 mg/g liver (Table 2) and 7.42 ± 0.88 mg/g liver (Table 3). For the same compound, the Relative liver weight (Table 2) is given as 4.44 ± 0.11 g/100 g b.w and the Relative liver weight (Table 3) worked out at 3.91 ± 0.10 g/100 g b.w. This compound had a Serum lipid levels Ch (Table 2) of 65.4 ± 1.4 mg/dL and a Serum lipid levels Ch (Table 3) of 74.2 ± 2.5 mg/dL. Moreover, the Serum lipid levels PL by setting is: (Table 2) 114 ± 2.5 mg/dL; (Table 3) 106 ± 3.6 mg/dL. The Serum lipid levels TG runs as follows: (Table 2) 48.9 ± 5.1 mg/dL; (Table 3) 37.6 ± 3 mg/dL. Further, the “Relative liver weight … (100)” value is on record as 115 (Table 2) and 103 (Table 3).

For the compound `O=C(OCCc1ccc(OCCc2ccc(Cl)cc2)cc1)c1cccnc1` [n1=2, n2=2, 4-(4-Chorophenethyloxy)phenetyl nicotinate], the response vs control in vivo at 100 mg/kg under setting [1] came to 107%. Further, the response vs control in vivo at 100 mg/kg under setting [3] amounted to 79.3%. For the same compound, under setting [4], the response vs control in vivo at 100 mg/kg is 84.2%. Also, the response vs control in vivo at 100 mg/kg under setting [5] was found to be 78.8%. Besides, the response vs control in vivo at 100 mg/kg under setting [6] is 78.2%. For the same compound, the response vs control in vivo at 100 mg/kg under setting [7] was 39.1%. Moreover, under “Table 2”, the “Liver lipid levels Ch” value came out at 2.41 ± 0.10 mg/g liver, the “Liver lipid levels PL” value worked out at 40.8 ± 0.3 mg/g liver, the “Liver lipid levels TG” value worked out at 5.32 ± 0.45 mg/g liver and the Relative liver weight is 3.97 ± 0.05 g/100 g b.w. Besides, for the setting “Table 2”, the Serum lipid levels Ch amounted to 68.3 ± 3.7 mg/dL; the Serum lipid levels PL came to 116 ± 5 mg/dL; the Serum lipid levels TG was found to be 48.4 ± 4.8 mg/dL; the “Relative liver weight … (100)” value is given as 103.

On to `O=C(OCCc1ccc(OCCCCc2ccc(Cl)cc2)cc1)c1cccnc1` [n1=4, n2=2, 4-[4-(4-Chlorophenyl)butoxy]phenethyl nicotinate], for which, under setting [2], the response vs control in vivo at 100 mg/kg amounted to 109%. Also, under setting [8], the response vs control in vivo at 100 mg/kg was found to be 98.3%. Besides, the response vs control in vivo at 100 mg/kg under setting [9] is 79.7%. Further, the response vs control in vivo at 100 mg/kg under setting [10] was 74%. Besides, under setting [11], the response vs control in vivo at 100 mg/kg stood at 67.1%. Further, the response vs control in vivo at 100 mg/kg under setting [12] was found to be 24.9%. Further, for the setting “Table 3”, the “Liver lipid levels Ch” value worked out at 2.28 ± 0.09 mg/g liver, the “Liver lipid levels PL” value amounted to 39.6 ± 0.9 mg/g liver, the “Liver lipid levels TG” value is 5.72 ± 0.40 mg/g liver and the Relative liver weight is given as 4.03 ± 0.07 g/100 g b.w. Further, under “Table 3”, the Serum lipid levels Ch was found to be 72.2 ± 1.3 mg/dL; the Serum lipid levels PL came to 104 ± 3.7 mg/dL; the Serum lipid levels TG amounted to 31.3 ± 3.6 mg/dL; the “Relative liver weight … (100)” value was 106.

On to `O=C(OCCCCc1ccc(OCCCCc2ccc(Cl)cc2)cc1)c1cccnc1` [n1=4, n2=4, 4-{4-[4-(4-Chlorophenyl)butoxy]phenyl}butyl nicotinate], for which the response vs control in vivo at 100 mg/kg under setting [1] is 107%. The response vs control in vivo at 100 mg/kg under setting [3] stood at 79.3%. Besides, under setting [4], the response vs control in vivo at 100 mg/kg is 112%. The response vs control in vivo at 100 mg/kg under setting [5] was determined as 70.8%. For the same compound, under setting [6], the response vs control in vivo at 100 mg/kg was determined as 69.2%. Also, under setting [7], the response vs control in vivo at 100 mg/kg stood at 31.5%. Moreover, where the note is “Table 2”, the “Liver lipid levels Ch” value stood at 2.41 ± 0.08 mg/g liver, the “Liver lipid levels PL” value is 40.9 ± 0.4 mg/g liver, the “Liver lipid levels TG” value worked out at 7.11 ± 0.53 mg/g liver and the Relative liver weight is 3.90 ± 0.06 g/100 g b.w. For the same compound, where the note is “Table 2”, the Serum lipid levels Ch worked out at 61.4 ± 3.2 mg/dL; the Serum lipid levels PL is 103 ± 4.4 mg/dL; the Serum lipid levels TG stood at 39 ± 3.2 mg/dL; the “Relative liver weight … (100)” value came out at 101.

On to `O=C(OCCCCCCc1ccc(OCCCCCCc2ccc(Cl)cc2)cc1)c1cccnc1` [n1=6, n2=6, 6-{4-[6'-(4-Chlorophenyl)hexyloxy]phenyl}hexyl nicotinate], for which the response vs control in vivo at 100 mg/kg under setting [2] was determined as 107%. Moreover, the response vs control in vivo at 100 mg/kg under setting [8] is 103%. Besides, the response vs control in vivo at 100 mg/kg under setting [9] worked out at 64.3%. Further, the response vs control in vivo at 100 mg/kg under setting [10] amounted to 79.3%. Moreover, the response vs control in vivo at 100 mg/kg under setting [11] was found to be 64.9%. The response vs control in vivo at 100 mg/kg under setting [12] was found to be 23.7%. Besides, for the setting “Table 3”, the “Liver lipid levels Ch” value is given as 2.38 ± 0.08 mg/g liver, the “Liver lipid levels PL” value was 38.7 ± 0.8 mg/g liver, the “Liver lipid levels TG” value is recorded as 4.62 ± 0.15 mg/g liver and the Relative liver weight is given as 3.84 ± 0.10 g/100 g b.w. In addition, under “Table 3”, the Serum lipid levels Ch was 77.4 ± 3.8 mg/dL; the Serum lipid levels PL stood at 101 ± 3.7 mg/dL; the Serum lipid levels TG worked out at 29.8 ± 1.5 mg/dL; the “Relative liver weight … (100)” value is on record as 101.
